In patent US20160214958A1, “COMPOUNDS AND USE FOR TREATING CANCER” (GLIONOVA AB, priority 2013, published 2016) one finds tumor growth and tumor size data, which are given here for 1 compound.

The subject of the assay is U3013MG GSCs injected into brain ventricle. As to the kind of experiment: Zebrafish xenograft in vivo efficacy assay. The method, then: A xenotransplantation model for GBM in zebrafish was developed to test the capacity of the 17 hits to prevent tumor formation in vivo. Three thousand U3013MG GSCs labeled with cell tracker red were injected intracranially into the ventricle of 48-52 hpf larvae. Each of the 17 hits were administered to the egg water at the lowest effective in vitro cytotoxic concentration identified and tumor development assessed 10 days later. This assay allowed rapid evaluation of the compounds in an in vivo setup, features such as the acute/chronic toxicity effect of the compounds on zebrafish and the transplanted cells, transplanted cell proliferation and migration of cells into brain parenchyma, compounds penetrance into the zebrafish tissue were all parallely evaluated. […] Cardiovascular toxicity was assessed using a recently established model based on frequency spectral analysis of heart beating in ex-vivo adult zebrafish hearts (Kitambi et al., (2012) BMC Physiol. 12, 3).
The zebrafish xenografts glioblastoma model was developed for quantitative analyses on the efficacy of S10 to inhibit tumor development and for quantification of infiltration of cells in the host brain. […] The size of the tumor was determined by quantification of the area, fluorescence level and infiltration by measuring the average distance of infiltrating cells from the original tumor mass. […]

As to `OC(c1cc(-c2ccc(Cl)cc2)nc2ccccc12)C1CCCCN1` (racemic) [Compound S10, (2-(4-chlorophenyl)quinolin-4-yl)(piperidin-2-yl)methanol], the tumor growth entry (15 μM applied to the aquarium water for 10 days) is reported as “marked attenuation of tumor growth”. The tumor size entry (lowest effective in vitro cytotoxic concentration in egg water, assessed 10 days later) is recorded as “markedly reduced tumor size”.
